From the supplement of paper PMC10307832

Key:
Assay in all cases: relative viability (nuclei count vs DMSO), 5 days (fraction); higher = more cells survive
COR-L23 = test system: COR-L23
Summary of the method: (§1)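 After 5 days of treatment, lung cancer cells in 1536-well plates were fixed and stained in a single step (final 0.05% Triton X-100, 1% formaldehyde, 1 ug/ml Hoechst) and their nuclei counted on 4× images. Treatment had been applied by pin tool the day after seeding as one drug alone or as a fixed anchor-drug dose with five library-drug doses (not always all listed) in √10 steps. Relative viability is the nuclei count of treated wells divided by that of vehicle wells, and values are medians of duplicate plates.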

ChaGo-K-1 = test system: ChaGo-K-1
Summary of the method: as §1

EMC-BAC-2 = test system: EMC-BAC-2
Summary of the method: as §1

EPLC-272H = test system: EPLC-272H
Summary of the method: as §1

H3255 = test system: H3255
Summary of the method: as §1

HCC-44 = test system: HCC-44
Summary of the method: as §1

HCC-827 = test system: HCC-827
Summary of the method: as §1

LCLC-103H = test system: LCLC-103H
Summary of the method: as §1

LU99A = test system: LU99A
Summary of the method: as §1

NCI-H1395 = test system: NCI-H1395
Summary of the method: as §1

NCI-H1563 = test system: NCI-H1563
Summary of the method: as §1

NCI-H1651 = test system: NCI-H1651
Summary of the method: as §1

NCI-H1793 = test system: NCI-H1793
Summary of the method: as §1

NCI-H1944 = test system: NCI-H1944
Summary of the method: as §1

NCI-H2023 = test system: NCI-H2023
Summary of the method: as §1

NCI-H2085 = test system: NCI-H2085
Summary of the method: as §1

NCI-H2087 = test system: NCI-H2087
Summary of the method: as §1

NCI-H2405 = test system: NCI-H2405
Summary of the method: as §1

NCI-H520 = test system: NCI-H520
Summary of the method: as §1

NCI-H650 = test system: NCI-H650
Summary of the method: as §1

NCI-H838 = test system: NCI-H838
Summary of the method: as §1

SK-MES-1 = test system: SK-MES-1
Summary of the method: as §1

Q: `Cc1sc2c(c1C)C(c1ccc(Cl)cc1)=N[C@@H](CC(=O)OC(C)(C)C)c1nnc(C)n1-2` [JQ1] + COc1cccc2cc(-c3nc([C@H]4CC[C@H](C(=O)O)CC4)n4ncnc(N)c34)[nH]c12 [OSI-027] (partner 0.5 µM) was tested. Which relative viability (COR-L23; first compound 0.04 µM) did it give?
A: 0.861

Q: And the relative viability (COR-L23; first compound 0.1265 µM)?
A: 0.662

Q: And the relative viability (COR-L23; first compound 0.4 µM)?
A: 0.699

Q: And the relative viability (COR-L23; first compound 1.265 µM)?
A: 0.293

Q: What about the relative viability (COR-L23; first compound 4 µM) of the same compound?
A: 0.46

Q: And the relative viability (ChaGo-K-1; first compound 0.04 µM)?
A: 0.564

Q: And the relative viability (ChaGo-K-1; first compound 0.1265 µM)?
A: 0.519

Q: What about the relative viability (ChaGo-K-1; first compound 0.4 µM) of the same compound?
A: 0.472

Q: And the relative viability (ChaGo-K-1; first compound 1.265 µM)?
A: 0.345

Q: What about the relative viability (ChaGo-K-1; first compound 4 µM) of the same compound?
A: 0.28

Q: And the relative viability (EMC-BAC-2; first compound 0.04 µM)?
A: 0.405

Q: And the relative viability (EMC-BAC-2; first compound 0.1265 µM)?
A: 0.286

Q: And the relative viability (EMC-BAC-2; first compound 0.4 µM)?
A: 0.301

Q: What about the relative viability (EMC-BAC-2; first compound 1.265 µM) of the same compound?
A: 0.189

Q: And the relative viability (EMC-BAC-2; first compound 4 µM)?
A: 0.224

Q: And the relative viability (EPLC-272H; first compound 0.04 µM)?
A: 0.26

Q: And the relative viability (EPLC-272H; first compound 0.1265 µM)?
A: 0.336

Q: And the relative viability (EPLC-272H; first compound 0.4 µM)?
A: 0.275

Q: What about the relative viability (EPLC-272H; first compound 1.265 µM) of the same compound?
A: 0.237

Q: What about the relative viability (EPLC-272H; first compound 4 µM) of the same compound?
A: 0.248

Q: What about the relative viability (H3255; first compound 0.04 µM) of the same compound?
A: 0.532

Q: What about the relative viability (H3255; first compound 0.1265 µM) of the same compound?
A: 0.672

Q: And the relative viability (H3255; first compound 0.4 µM)?
A: 0.629

Q: What about the relative viability (H3255; first compound 1.265 µM) of the same compound?
A: 0.438

Q: And the relative viability (H3255; first compound 4 µM)?
A: 0.444

Q: And the relative viability (HCC-44; first compound 0.04 µM)?
A: 0.477

Q: And the relative viability (HCC-44; first compound 0.1265 µM)?
A: 0.293

Q: What about the relative viability (HCC-44; first compound 0.4 µM) of the same compound?
A: 0.484

Q: And the relative viability (HCC-44; first compound 1.265 µM)?
A: 0.288

Q: What about the relative viability (HCC-44; first compound 4 µM) of the same compound?
A: 0.214

Q: What about the relative viability (HCC-827; first compound 0.04 µM) of the same compound?
A: 0.704

Q: What about the relative viability (HCC-827; first compound 0.4 µM) of the same compound?
A: 0.532

Q: And the relative viability (HCC-827; first compound 1.265 µM)?
A: 0.866

Q: What about the relative viability (HCC-827; first compound 4 µM) of the same compound?
A: 0.738

Q: What about the relative viability (LCLC-103H; first compound 0.04 µM) of the same compound?
A: 0.443

Q: What about the relative viability (LCLC-103H; first compound 0.1265 µM) of the same compound?
A: 0.448

Q: What about the relative viability (LCLC-103H; first compound 0.4 µM) of the same compound?
A: 0.367

Q: And the relative viability (LCLC-103H; first compound 1.265 µM)?
A: 0.357

Q: What about the relative viability (LCLC-103H; first compound 4 µM) of the same compound?
A: 0.29

Q: What about the relative viability (LU99A; first compound 0.04 µM) of the same compound?
A: 0.299

Q: What about the relative viability (LU99A; first compound 0.1265 µM) of the same compound?
A: 0.268

Q: And the relative viability (LU99A; first compound 0.4 µM)?
A: 0.316

Q: And the relative viability (LU99A; first compound 1.265 µM)?
A: 0.234

Q: And the relative viability (LU99A; first compound 4 µM)?
A: 0.209

Q: What about the relative viability (NCI-H1395; first compound 0.04 µM) of the same compound?
A: 0.626

Q: And the relative viability (NCI-H1395; first compound 0.1265 µM)?
A: 0.489

Q: What about the relative viability (NCI-H1395; first compound 0.4 µM) of the same compound?
A: 0.605

Q: And the relative viability (NCI-H1395; first compound 1.265 µM)?
A: 0.488

Q: What about the relative viability (NCI-H1395; first compound 4 µM) of the same compound?
A: 0.477

Q: And the relative viability (NCI-H1563; first compound 0.04 µM)?
A: 0.735

Q: And the relative viability (NCI-H1563; first compound 0.1265 µM)?
A: 0.704

Q: What about the relative viability (NCI-H1563; first compound 0.4 µM) of the same compound?
A: 0.605

Q: And the relative viability (NCI-H1563; first compound 1.265 µM)?
A: 0.552

Q: And the relative viability (NCI-H1563; first compound 4 µM)?
A: 0.545

Q: And the relative viability (NCI-H1651; first compound 0.04 µM)?
A: 0.624

Q: And the relative viability (NCI-H1651; first compound 0.1265 µM)?
A: 0.638

Q: And the relative viability (NCI-H1651; first compound 0.4 µM)?
A: 0.591

Q: What about the relative viability (NCI-H1651; first compound 1.265 µM) of the same compound?
A: 0.391

Q: What about the relative viability (NCI-H1651; first compound 4 µM) of the same compound?
A: 0.407

Q: What about the relative viability (NCI-H1793; first compound 0.04 µM) of the same compound?
A: 0.237

Q: And the relative viability (NCI-H1793; first compound 0.1265 µM)?
A: 0.343

Q: What about the relative viability (NCI-H1793; first compound 0.4 µM) of the same compound?
A: 0.38

Q: What about the relative viability (NCI-H1793; first compound 1.265 µM) of the same compound?
A: 0.241

Q: And the relative viability (NCI-H1793; first compound 4 µM)?
A: 0.286

Q: And the relative viability (NCI-H1944; first compound 0.04 µM)?
A: 0.39

Q: And the relative viability (NCI-H1944; first compound 0.1265 µM)?
A: 0.364

Q: And the relative viability (NCI-H1944; first compound 0.4 µM)?
A: 0.375

Q: What about the relative viability (NCI-H1944; first compound 1.265 µM) of the same compound?
A: 0.227

Q: And the relative viability (NCI-H1944; first compound 4 µM)?
A: 0.25

Q: What about the relative viability (NCI-H2023; first compound 0.04 µM) of the same compound?
A: 0.362

Q: And the relative viability (NCI-H2023; first compound 0.1265 µM)?
A: 0.377

Q: And the relative viability (NCI-H2023; first compound 0.4 µM)?
A: 0.262

Q: What about the relative viability (NCI-H2023; first compound 1.265 µM) of the same compound?
A: 0.142

Q: What about the relative viability (NCI-H2023; first compound 4 µM) of the same compound?
A: 0.148

Q: And the relative viability (NCI-H2085; first compound 0.04 µM)?
A: 0.763

Q: What about the relative viability (NCI-H2085; first compound 0.1265 µM) of the same compound?
A: 0.519

Q: And the relative viability (NCI-H2085; first compound 0.4 µM)?
A: 0.574

Q: What about the relative viability (NCI-H2085; first compound 1.265 µM) of the same compound?
A: 0.368

Q: What about the relative viability (NCI-H2085; first compound 4 µM) of the same compound?
A: 0.323

Q: What about the relative viability (NCI-H2087; first compound 0.04 µM) of the same compound?
A: 0.586

Q: And the relative viability (NCI-H2087; first compound 0.1265 µM)?
A: 0.643

Q: What about the relative viability (NCI-H2087; first compound 0.4 µM) of the same compound?
A: 0.699

Q: And the relative viability (NCI-H2087; first compound 1.265 µM)?
A: 0.302

Q: And the relative viability (NCI-H2087; first compound 4 µM)?
A: 0.301

Q: And the relative viability (NCI-H2405; first compound 0.04 µM)?
A: 0.651

Q: And the relative viability (NCI-H2405; first compound 0.1265 µM)?
A: 0.632

Q: What about the relative viability (NCI-H2405; first compound 0.4 µM) of the same compound?
A: 0.696

Q: What about the relative viability (NCI-H2405; first compound 1.265 µM) of the same compound?
A: 0.58

Q: And the relative viability (NCI-H2405; first compound 4 µM)?
A: 0.582

Q: And the relative viability (NCI-H520; first compound 0.04 µM)?
A: 0.211

Q: And the relative viability (NCI-H520; first compound 0.1265 µM)?
A: 0.325

Q: What about the relative viability (NCI-H520; first compound 0.4 µM) of the same compound?
A: 0.201

Q: And the relative viability (NCI-H520; first compound 1.265 µM)?
A: 0.217

Q: And the relative viability (NCI-H520; first compound 4 µM)?
A: 0.208

Q: And the relative viability (NCI-H650; first compound 0.04 µM)?
A: 0.584

Q: What about the relative viability (NCI-H650; first compound 0.1265 µM) of the same compound?
A: 0.41

Q: What about the relative viability (NCI-H650; first compound 0.4 µM) of the same compound?
A: 0.415

Q: What about the relative viability (NCI-H650; first compound 1.265 µM) of the same compound?
A: 0.25

Q: And the relative viability (NCI-H650; first compound 4 µM)?
A: 0.192

Q: What about the relative viability (NCI-H838; first compound 0.04 µM) of the same compound?
A: 0.379

Q: What about the relative viability (NCI-H838; first compound 0.1265 µM) of the same compound?
A: 0.369

Q: And the relative viability (NCI-H838; first compound 0.4 µM)?
A: 0.433

Q: And the relative viability (NCI-H838; first compound 1.265 µM)?
A: 0.251

Q: What about the relative viability (NCI-H838; first compound 4 µM) of the same compound?
A: 0.21

Q: What about the relative viability (SK-MES-1; first compound 0.04 µM) of the same compound?
A: 0.614

Q: What about the relative viability (SK-MES-1; first compound 0.1265 µM) of the same compound?
A: 0.497

Q: What about the relative viability (SK-MES-1; first compound 0.4 µM) of the same compound?
A: 0.379

Q: And the relative viability (SK-MES-1; first compound 1.265 µM)?
A: 0.157

Q: And the relative viability (SK-MES-1; first compound 4 µM)?
A: 0.158
